{
  "source": "ChEMBL document CHEMBL1131274",
  "about": "“N6-(5,6-epoxynorbornyl)adenosine analogs as A1 adenosine agonists” (Bioorg Med Chem Lett, 1998)",
  "data": [
    {"experiment": "Potency to inhibit A1-adenosine receptor mediated cAMP accumulation in DDT1 MF-2 cells", "type": "functional, cell-based", "details": "Mesocricetus auratus", "units": {"EC50": "nM"}, "values": [
      {"smiles": "CCNC(=O)[C@H]1OC(n2cnc3c(NCC4CCCCO4)ncnc32)[C@H](O)[C@@H]1O", "note": "(some centres undefined)", "EC50": 641},
      {"smiles": "OC[C@H]1OC(n2cnc3c(NC4CC=CCC4)ncnc32)[C@H](O)[C@@H]1O", "note": "(some centres undefined)", "EC50": 7.2},
      {"smiles": "CCNC(=O)[C@H]1OC(n2cnc3c(NC4CC=CCC4)ncnc32)[C@H](O)[C@@H]1O", "note": "(some centres undefined)", "EC50": 1.1},
      {"smiles": "CCNC(=O)[C@H]1OC(n2cnc3c(NCC4CC5C=CC4C5)ncnc32)[C@H](O)[C@@H]1O", "note": "(some centres undefined)", "EC50": 35},
      {"smiles": "OC[C@H]1OC(n2cnc3c(NC4CCC5OC5C4)ncnc32)[C@H](O)[C@@H]1O", "note": "(some centres undefined)", "EC50": 37},
      {"smiles": "OC[C@H]1O[C@@H](n2cnc3c(NC4CCCC4)ncnc32)[C@H](O)[C@@H]1O", "note": "[N6-CYCLOPENTYLADENOSINE]", "EC50": 2.8},
      {"smiles": "OC[C@H]1OC(n2cnc3c(NCC4CC5C=CC4C5)ncnc32)[C@H](O)[C@@H]1O", "note": "(some centres undefined)", "EC50": 188},
      {"smiles": "CCNC(=O)[C@H]1OC(n2cnc3c(NCCN4CCOCC4)ncnc32)[C@H](O)[C@@H]1O", "note": "(some centres undefined)", "EC50": 18},
      {"smiles": "CCNC(=O)[C@H]1OC(n2cnc3c(NC4CCC5OC5C4)ncnc32)[C@H](O)[C@@H]1O", "note": "(some centres undefined)", "EC50": 5.9},
      {"smiles": "OC[C@H]1OC(n2cnc3c(NCC4CCCCO4)ncnc32)[C@H](O)[C@@H]1O", "note": "(some centres undefined)", "EC50": 3090},
      {"smiles": "CCNC(=O)[C@H]1OC(n2cnc3c(NCc4ccco4)ncnc32)[C@H](O)[C@@H]1O", "note": "(some centres undefined)", "EC50": 262},
      {"smiles": "CCNC(=O)[C@H]1OC(n2cnc3c(NC4CC5CC4C4OC54)[n+]([O-])cnc32)[C@H](O)[C@@H]1O", "note": "(some centres undefined)", "EC50": 217},
      {"smiles": "OC[C@H]1OC(n2cnc3c(NCC4CC5CC4C4OC54)ncnc32)[C@H](O)[C@@H]1O", "note": "(some centres undefined)", "EC50": 537},
      {"smiles": "CCNC(=O)[C@H]1OC(n2cnc3c(NCC4CC5CC4C4OC54)ncnc32)[C@H](O)[C@@H]1O", "note": "(some centres undefined)", "EC50": 159}
    ]}
  ]
}
